Common to all, as to format: cell-based
Assay [1] concerns Wnt activity (Sp5-Luc reporter, SW480 colon carcinoma cells). The assay is described as follows: Wnt activity screening assay, Sp5-Luc reporter gene in SW480 cells. Conditions: Homo sapiens; for inhibition at 10 µM: SW480, read-out: percent inhibition at 10 μM; for EC50: Sp5-Luc reporter, SW480 cells, overnight incubation. An excerpt:
The screening assay for Wnt activity is described as follows. Reporter cell lines can be generated by stably transducing cancer cell lines (e.g., colon cancer) or primary cells (e.g., IEC-6 intestinal cells) with a lentiviral construct that includes a Wnt-responsive promoter driving expression of the firefly luciferase gene.
SW480 colon carcinoma cells were transduced with a lentiviral vector expressing luciferase with a human Sp5 promoter consisting of a sequence of eight TCF/LEF binding sites. SW480 cells stably expressing the Sp5-Luc reporter gene and a hygromycin resistance gene were selected by treatment with 150 μg/mL of hygromycin for 7 days. These stably transduced SW480 cells were expanded in cell culture and used for all further screening activities. […] For Sp5-Luc reporter gene assays, the cells were plated at 4,000 cells/well in 384-well plates with medium containing 1% fetal bovine serum and incubated overnight at 37° C. and 5% CO2. Following incubation, 20 μl of BrightGlo luminescence reagent (Promega) was added to each well of the 384-well assay plates. The plates were placed on an orbital shaker for 2 min and then luminescence was quantified using the Envision (Perkin Elmer) plate reader. Readings were normalized to DMSO only treated cells, and normalized activities were utilized for EC50 calculations using the dose-response log (inhibitor) vs. response−variable slope (four parameters) nonlinear regression feature available in GraphPad Prism 5.0 (or Dotmatics).
(Reporter assays use an easily measured gene product as a stand-in for the process of interest.)

The next assay deals with SW480 colon cancer cells. The assay is described as follows: Cell viability assay (CellTiter-Blue). Conditions: Homo sapiens; for EC50: 96 h, SW480 cell viability, four days; for inhibition at 10 µM: SW480, 96 h, read-out: percent inhibition at 10 μM. On the procedure: Representative compounds were screened using the following assay procedure to assess the effect on cell viability as described below.
Approximately 2×10^3 SW480 colon cancer cells were seeded into each well and allowed to incubate in the presence or absence of compound for four days at 37° C./5% CO2. Eight replicates of DMSO-treated cells served as controls and cells treated with compound were performed in duplicate.
After incubation, 20 μL of CellTiter-Blue (Promega) was added to each well allowed to incubate for approximately 3 hours. This reagent was a buffered solution which contains resazurin, metabolically active cells were able to reduce rezarurin (blue) into resorufin (pink) which was highly fluorescent. This measured fluorescence was used as a readout for cell viability.
A general note: The colour change of resazurin is a common sign of viable cells or microbes.

Assay [2] concerns primary human fibroblasts derived from IPF patients (LL29 cells). The assay is described as follows: Inhibition of fibrotic process, αSMA staining in TGF-β1 treated fibroblasts. The conditions noted are these: Fibroblast; for EC50: 96 h, LL29 cells, TGF-β1 20 ng/mL, 4 days, % αSMA positive cells; for inhibition at 10 µM: read-out: percent inhibition at 10 μM. On the procedure: Representative compounds were screened using primary human fibroblasts (derived from IPF patients) treated with TGF-β1 to determine their ability to inhibit the fibrotic process.
LL29 cells are plated at 1,500 cells/well in 80 μL/well F12 medium supplemented with 1% Fetal Bovine Serum. […] Wells treated with TGF-31 and containing DMSO were used as controls. […] Following incubation for 4 days, SYTOX green nucleic acid stain (Life Technologies [Thermo Fisher Scientific]) was added to the wells at a final concentration of 1 μM and incubated at room temperature for 30 min.

A further assay relates to IL-6. The assay can be described thus: IL-6 inhibition in LPS-stimulated THP-1 cells (HTRF). The conditions noted are these: Homo sapiens; for inhibition at 10 µM: THP-1, read-out: percent inhibition at 10 μM; for EC50: THP-1 cells, LPS 500 ng/mL, 22 hours, IL6 HTRF. Here is the method: THP-1 cells were cultured in basal media with 1% FBS for 24 hours before the start of the assay. […] THP-1 cells were plated at 5000 cells/well in the 384-well plates and incubated at 37° C. for 2 h. 500 ng/mL of LPS was added after 2 hours and cells were incubated for another 22 hours at 37° C. Plates were spun in a centrifuge for 1 minute at […] and a mixture of anti-IL6 XL665, and anti-IL6 Cryptate diluted in reconstitution buffer (Cisbio Inc.) was added to each well. Following incubation for 3 hrs at room temperature, Homogeneous Time-Resolved Fluorescence (HTRF) was measured using the Envision (Perkin Elmer) at 665 nm and […]. The ratio of fluorescence at 665 nm to 620 nm was used as a readout for IL6 quantification. All samples were processed in duplicate. Readings were normalized to DMSO treated cells and normalized activities were utilized for EC50 calculations using the dose-response log (inhibitor) vs. response−variable slope (four parameters) nonlinear regression feature available in GraphPad Prism 5.0 (or Dotmatics).
On the technique in general: In TR-FRET formats the signal depends on donor and acceptor labels being close together.

Inhibition and EC50 data for 14 compounds are collected here from patent publication US20180221352A1, “3-(1H-PYRROLO[2,3-C]PYRIDIN-2-YL)-1H-PYRAZOLO[3,4-B]PYRIDINES AND THERAPEUTIC USES THEREOF” (Samumed, LLC, priority 2015, published 2018).

Molecules are shown by their SMILES.

For the compound `O=C(Nc1cncc(-c2cnc3[nH]nc(-c4cc5c(N6CCCCC6)cncc5[nH]4)c3c2)c1)c1ccccc1` [Compound 179, N-(5-(3-(4-(Piperidin-1-yl)-1H-pyrrolo[2,3-c]pyridin-2-yl)-1H-pyrazolo[3,4-b]pyridin-5-yl)pyridin-3-yl)benzamide], the inhibition (usually how much of the control response was suppressed) at 10 µM in assay [1] is 45.1%; with IL-6, 36.1%. Further, the EC50 (as a rule, the concentration that produces a half-maximal response) was above 10 µM in assay [1], 3.84 µM in the assay with SW480 colon cancer cells, 4.59 µM in assay [2] and above 10 µM in the assay on IL-6.
Take `c1ncc(-c2cnc3[nH]nc(-c4cc5c(N6CCCCC6)cncc5[nH]4)c3c2)cc1CN1CCCCC1` [Compound 183, 3-(4-(Piperidin-1-yl)-1H-pyrrolo[2,3-c]pyridin-2-yl)-5-(5-(piperidin-1-ylmethyl)pyridin-3-yl)-1H-pyrazolo[3,4-b]pyridine]: the EC50 in assay [1] was 4.98 µM; with SW480 colon cancer cells, 3.17 µM; in assay [2], 2.4 µM; with IL-6, above 10 µM. Besides, the inhibition at 10 µM with IL-6 was found to be 20.3%.
For the compound `O=C(Nc1cncc(-c2cnc3[nH]nc(-c4cc5c(N6CCCCC6)cncc5[nH]4)c3c2)c1)C1CCCCC1` [Compound 191, N-(5-(3-(4-(Piperidin-1-yl)-1H-pyrrolo[2,3-c]pyridin-2-yl)-1H-pyrazolo[3,4-b]pyridin-5-yl)pyridin-3-yl)cyclohexanecarboxamide], the EC50 in assay [1] turned out to be 9.12 µM; in the assay with SW480 colon cancer cells, 4.09 µM; in assay [2] it was 5.63 µM; in the assay with IL-6, 6.43 µM.
For `CCNCc1cncc(-c2cnc3[nH]nc(-c4cc5ccncc5[nH]4)c3c2)c1` [Compound 258, N-((5-(3-(1H-Pyrrolo[2,3-c]pyridin-2-yl)-1H-pyrazolo[3,4-b]pyridin-5-yl)pyridin-3-yl)methyl)ethanamine], the EC50 was 9.34 µM in assay [1], 3.32 µM in the assay with SW480 colon cancer cells, 7.43 µM in assay [2] and 1.55 µM with IL-6.
In the same order, the values of `c1ccc(-c2cnc3[nH]nc(-c4cc5ccncc5[nH]4)c3c2)nc1` [Compound 280, 5-(Pyridin-2-yl)-3-(1H-pyrrolo[2,3-c]pyridin-2-yl)-1H-pyrazolo[3,4-b]pyridine] are 3.87 µM, 1.15 µM, 1.59 µM and 3.75 µM.
In the same order, the values of `CC(C)C(=O)Nc1cncc(-c2cnc3[nH]nc(-c4cc5c(-c6ccoc6)cncc5[nH]4)c3c2)c1` [Compound 317, N-(5-(3-(4-(Furan-3-yl)-1H-pyrrolo[2,3-c]pyridin-2-yl)-1H-pyrazolo[3,4-b]pyridin-5-yl)pyridin-3-yl)isobutyramide] are 3.62 µM, 9.97 µM, 1.69 µM and 2.08 µM.
Take `CN(C)Cc1cncc(-c2cnc3[nH]nc(-c4cc5c(-c6ccoc6)cncc5[nH]4)c3c2)c1` [Compound 321, 1-(5-(3-(4-(Furan-3-yl)-1H-pyrrolo[2,3-c]pyridin-2-yl)-1H-pyrazolo[3,4-b]pyridin-5-yl)pyridin-3-yl)-N,N-dimethylmethanamine]: the inhibition at 10 µM in assay [1] came out at 15.4%; in assay [2] it was 41.1%; in the assay on IL-6, 29.2%. In addition, the EC50 was above 10 µM in assay [1], 6.29 µM in the assay with SW480 colon cancer cells, above 10 µM in assay [2] and above 10 µM with IL-6.
In the case of `CC(C)(C)CC(=O)Nc1cncc(-c2cnc3[nH]nc(-c4cc5c(-c6ccoc6)cncc5[nH]4)c3c2)c1` [Compound 324, N-(5-(3-(4-(Furan-3-yl)-1H-pyrrolo[2,3-c]pyridin-2-yl)-1H-pyrazolo[3,4-b]pyridin-5-yl)pyridin-3-yl)-3,3-dimethylbutanamide], the EC50 in assay [1] is 3.73 µM; with SW480 colon cancer cells, 7 µM; in assay [2], 0.874 µM; with IL-6, 0.437 µM.
Regarding `c1ncc(-c2cnc3[nH]nc(-c4cc5c(-c6ccoc6)cncc5[nH]4)c3c2)cn1` [Compound 335, 3-(4-(Furan-3-yl)-1H-pyrrolo[2,3-c]pyridin-2-yl)-5-(pyrimidin-5-yl)-1H-pyrazolo[3,4-b]pyridine], the inhibition at 10 µM in assay [1] stood at 24.9%; in the assay with SW480 colon cancer cells it was 47%. Also, the EC50 in assay [1] was above 10 µM; with SW480 colon cancer cells, above 10 µM; in assay [2], 4.77 µM; with IL-6, 2.52 µM.
Consider `CS(=O)(=O)NCc1cc(F)cc(-c2cncc3[nH]c(-c4n[nH]c5ncc(-c6cncc(CN7CCCC7)c6)cc45)cc23)c1` [Compound 490, N-(3-Fluoro-5-(2-(5-(5-(pyrrolidin-1-ylmethyl)pyridin-3-yl)-1H-pyrazolo [3,4-b]pyridin-3-yl)-1H-pyrrolo[2,3-c]pyridin-4-yl)benzyl)methanesulfonamide], for which the inhibition at 10 µM in assay [1] was 24%; with SW480 colon cancer cells, 9.7%; in assay [2], 16.2%. Moreover, the EC50 was above 10 µM in assay [1], above 10 µM in the assay with SW480 colon cancer cells, above 10 µM in assay [2] and 0.325 µM in the assay with IL-6.
On to `CS(=O)(=O)NCc1cc(F)cc(-c2cncc3[nH]c(-c4n[nH]c5ncc(-c6cncc(NC(=O)C7CCCCC7)c6)cc45)cc23)c1` [Compound 499, N-(5-(3-(4-(3-Fluoro-5-(methylsulfonamidomethyl)phenyl)-1H-pyrrolo[2,3-c]pyridin-2-yl)-1H-pyrazolo[3,4-b]pyridin-5-yl)pyridin-3-yl)cyclohexanecarboxamide], for which the inhibition at 10 µM in assay [1] amounted to 12.3%; in the assay on SW480 colon cancer cells, 9.9%; in assay [2] it was 28.5%; in the assay with IL-6, 32.4%. For the same compound, the EC50 (in assay [1]; in the assay with SW480 colon cancer cells; in assay [2]; in the assay on IL-6) was above 10 µM each time.
Consider `Fc1cccc(-c2cncc3[nH]c(-c4n[nH]c5ncc(C6CCNCC6)cc45)cc23)c1` [Compound 505, 3-(4-(3-Fluorophenyl)-1H-pyrrolo[2,3-c]pyridin-2-yl)-5-(piperidin-4-yl)-1H-pyrazolo[3,4-b]pyridine], for which the inhibition at 10 µM in assay [1] is 17.5%; in the assay with SW480 colon cancer cells it was 7%; in assay [2], 0%. For the same compound, the EC50 in assay [1] is above 10 µM; with SW480 colon cancer cells it was above 10 µM; in assay [2], above 10 µM; with IL-6, 4.09 µM.
Take `Fc1ccc(-c2cncc3[nH]c(-c4n[nH]c5ncc(-c6cncc(OC7CCCCC7)c6)cc45)cc23)cc1` [Compound 527, 5-(5-(Cyclohexyloxy)pyridin-3-yl)-3-(4-(4-fluorophenyl)-1H-pyrrolo[2,3-c]pyridin-2-yl)-1H-pyrazolo[3,4-b]pyridine]: the EC50 in assay [1] was 7.28 µM; in the assay with SW480 colon cancer cells, 2.6 µM; in assay [2], 4.35 µM; with IL-6, above 10 µM. Moreover, in the assay on IL-6, the inhibition at 10 µM is 21.7%.
With `O=C(CC1CCNCC1)Nc1cncc(-c2cnc3[nH]nc(-c4cc5c(-c6cccnc6)cncc5[nH]4)c3c2)c1` [Compound 561, 2-(Piperidin-4-yl)-N-(5-(3-(4-(pyridin-3-yl)-1H-pyrrolo[2,3-c]pyridin-2-yl)-1H-pyrazolo[3,4-b]pyridin-5-yl)pyridin-3-yl)acetamide], the inhibition at 10 µM in assay [1] worked out at 0%; with SW480 colon cancer cells, 4.4%; in the assay on IL-6 it was 14.5%. The EC50 was above 10 µM in assay [1], above 10 µM with SW480 colon cancer cells, 2.2 µM in assay [2] and above 10 µM with IL-6.
